Assay results taken from PubChem BioAssay AID1963840 (Molecular Pharmacology Branch, DTP, NCI, 2024).

Tested on: 695427-040-R-J1-PDC complex spheroid viability
Assay: Anticancer human tumor 695427-040-R-J1-PDC patient-derived colon adenocarcinoma cell line growth inhibition [POLQ]
Conditions: for IC50: curve of first compound; for viability, T/C: stronger effect = lower value
Procedure, shortened: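 Growth inhibition in 3D: complex spheroids (tumor PDC, HUVEC, MSC) treated with POLQ inhibitor combinations; where Cmax unknown, highest tested concentration 10 microM, except SN-38 at 1 microM.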

[1] = second compound 0.0316 µM, first compound 0.0316 µM
[2] = second compound 0.0316 µM, first compound 0.1 µM
[3] = second compound 0.0316 µM, first compound 0.316 µM
[4] = second compound 0.0316 µM, first compound 1 µM
[5] = second compound 0.0316 µM, first compound 3.16 µM
[6] = second compound 0.0316 µM, first compound 10 µM
[7] = second compound 0.1 µM, first compound 0.0316 µM
[8] = second compound 0.1 µM, first compound 0.1 µM
[9] = second compound 0.1 µM, first compound 0.316 µM
[10] = second compound 0.1 µM, first compound 1 µM
[11] = second compound 0.1 µM, first compound 3.16 µM
[12] = second compound 0.1 µM, first compound 10 µM
[13] = second compound 0.316 µM, first compound 0.0316 µM
[14] = second compound 0.316 µM, first compound 0.1 µM
[15] = second compound 0.316 µM, first compound 0.316 µM
[16] = second compound 0.316 µM, first compound 1 µM
[17] = second compound 0.316 µM, first compound 3.16 µM
[18] = second compound 0.316 µM, first compound 10 µM
[19] = second compound 1 µM, first compound 0.0316 µM
[20] = second compound 1 µM, first compound 0.1 µM
[21] = second compound 1 µM, first compound 0.316 µM
[22] = second compound 1 µM, first compound 1 µM
[23] = second compound 1 µM, first compound 3.16 µM
[24] = second compound 1 µM, first compound 10 µM
[25] = second compound 3.16 µM, first compound 0.0316 µM
[26] = second compound 3.16 µM, first compound 0.1 µM
[27] = second compound 3.16 µM, first compound 0.316 µM
[28] = second compound 3.16 µM, first compound 1 µM
[29] = second compound 3.16 µM, first compound 3.16 µM
[30] = second compound 3.16 µM, first compound 10 µM
[31] = second compound 10 µM, first compound 0.0316 µM
[32] = second compound 10 µM, first compound 0.1 µM
[33] = second compound 10 µM, first compound 0.316 µM
[34] = second compound 10 µM, first compound 1 µM
[35] = second compound 10 µM, first compound 3.16 µM
[36] = second compound 10 µM, first compound 10 µM
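Note: spheroids exposed to compounds for seven days.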
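Throughout, for viability, T/C: 100% = DMSO vehicle control viability.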

CNCc1ccc(-c2[nH]c3cc(F)cc4c3c2CCNC4=O)cc1 + COC1C(OC(N)=O)C(O)C(Oc2ccc3c(O)c(NC(=O)c4ccc(O)c(CC=C(C)C)c4)c(=O)oc3c2C)OC1(C)C
IC50 (second compound 0.0316 µM): > 10 µM | IC50 (second compound 0.1 µM): > 10 µM | IC50 (second compound 0.316 µM): > 10 µM | IC50 (second compound 1 µM): > 10 µM | IC50 (second compound 3.16 µM): > 10 µM | IC50 (second compound 10 µM): > 10 µM | viability, T/C [1]: 94.5% | viability, T/C [2]: 96.1% | viability, T/C [3]: 108% | viability, T/C [4]: 99.7% | viability, T/C [5]: 112% | viability, T/C [6]: 103% | viability, T/C [7]: 108% | viability, T/C [8]: 95.1% | viability, T/C [9]: 107% | viability, T/C [10]: 103% | viability, T/C [11]: 112% | viability, T/C [12]: 111% | viability, T/C [13]: 101% | viability, T/C [14]: 99.8% | viability, T/C [15]: 94.5% | viability, T/C [16]: 96.8% | viability, T/C [17]: 115% | viability, T/C [18]: 105% | viability, T/C [19]: 97.6% | viability, T/C [20]: 95% | viability, T/C [21]: 105% | viability, T/C [22]: 103% | viability, T/C [23]: 112% | viability, T/C [24]: 115% | viability, T/C [25]: 101% | viability, T/C [26]: 99.3% | viability, T/C [27]: 108% | viability, T/C [28]: 93.2% | viability, T/C [29]: 117% | viability, T/C [30]: 103% | viability, T/C [31]: 98.1% | viability, T/C [32]: 91.8% | viability, T/C [33]: 106% | viability, T/C [34]: 109% | viability, T/C [35]: 114% | viability, T/C [36]: 113%

COc1cccc(OCCCN)c1-c1cc(Nc2cnc(C#N)cn2)n[nH]1 + COC1C(OC(N)=O)C(O)C(Oc2ccc3c(O)c(NC(=O)c4ccc(O)c(CC=C(C)C)c4)c(=O)oc3c2C)OC1(C)C
IC50 (second compound 0.0316 µM): 0.386 µM | IC50 (second compound 0.1 µM): 0.535 µM | IC50 (second compound 0.316 µM): 0.46 µM | IC50 (second compound 1 µM): 0.391 µM | IC50 (second compound 3.16 µM): 0.449 µM | IC50 (second compound 10 µM): 0.465 µM | viability, T/C (second compound 0.0316 µM, first compound 0.00316 µM): 103% | viability, T/C (second compound 0.0316 µM, first compound 0.01 µM): 94.2% | viability, T/C [1]: 81.1% | viability, T/C [2]: 70.2% | viability, T/C [3]: 50.3% | viability, T/C [4]: 39.7% | viability, T/C (second compound 0.1 µM, first compound 0.00316 µM): 109% | viability, T/C (second compound 0.1 µM, first compound 0.01 µM): 84.2% | viability, T/C [7]: 81% | viability, T/C [8]: 69.7% | viability, T/C [9]: 56% | viability, T/C [10]: 42.2% | viability, T/C (second compound 0.316 µM, first compound 0.00316 µM): 101% | viability, T/C (second compound 0.316 µM, first compound 0.01 µM): 93% | viability, T/C [13]: 85% | viability, T/C [14]: 73.1% | viability, T/C [15]: 54% | viability, T/C [16]: 39.2% | viability, T/C (second compound 1 µM, first compound 0.00316 µM): 102% | viability, T/C (second compound 1 µM, first compound 0.01 µM): 93.7% | viability, T/C [19]: 83.7% | viability, T/C [20]: 66.3% | viability, T/C [21]: 53.9% | viability, T/C [22]: 38.1% | viability, T/C (second compound 3.16 µM, first compound 0.00316 µM): 107% | viability, T/C (second compound 3.16 µM, first compound 0.01 µM): 95.1% | viability, T/C [25]: 86.3% | viability, T/C [26]: 67.2% | viability, T/C [27]: 56.3% | viability, T/C [28]: 38.7% | viability, T/C (second compound 10 µM, first compound 0.00316 µM): 100% | viability, T/C (second compound 10 µM, first compound 0.01 µM): 84.9% | viability, T/C [31]: 81.1% | viability, T/C [32]: 68.9% | viability, T/C [33]: 55.2% | viability, T/C [34]: 39.8%

O=C(c1cc(Cc2n[nH]c(=O)c3ccccc23)ccc1F)N1CCN(C(=O)C2CC2)CC1 + COC1C(OC(N)=O)C(O)C(Oc2ccc3c(O)c(NC(=O)c4ccc(O)c(CC=C(C)C)c4)c(=O)oc3c2C)OC1(C)C
IC50 (second compound 0.0316 µM): > 10 µM | IC50 (second compound 0.1 µM): > 10 µM | IC50 (second compound 0.316 µM): > 10 µM | IC50 (second compound 1 µM): > 10 µM | IC50 (second compound 3.16 µM): > 10 µM | IC50 (second compound 10 µM): > 10 µM | viability, T/C [1]: 115% | viability, T/C [2]: 106% | viability, T/C [3]: 105% | viability, T/C [4]: 105% | viability, T/C [5]: 110% | viability, T/C [6]: 97.9% | viability, T/C [7]: 108% | viability, T/C [8]: 108% | viability, T/C [9]: 108% | viability, T/C [10]: 105% | viability, T/C [11]: 111% | viability, T/C [12]: 96.3% | viability, T/C [13]: 110% | viability, T/C [14]: 96.9% | viability, T/C [15]: 105% | viability, T/C [16]: 104% | viability, T/C [17]: 114% | viability, T/C [18]: 108% | viability, T/C [19]: 110% | viability, T/C [20]: 105% | viability, T/C [21]: 104% | viability, T/C [22]: 106% | viability, T/C [23]: 117% | viability, T/C [24]: 101% | viability, T/C [25]: 97.1% | viability, T/C [26]: 96.7% | viability, T/C [27]: 94.3% | viability, T/C [28]: 108% | viability, T/C [29]: 117% | viability, T/C [30]: 112% | viability, T/C [31]: 103% | viability, T/C [32]: 103% | viability, T/C [33]: 115% | viability, T/C [34]: 107% | viability, T/C [35]: 114% | viability, T/C [36]: 97%
